These results are taken from US20210214375A1 (LUNDBECK LA JOLLA RESEARCH CENTER, INC., priority 2017, published 2021).

SMILES strings stand for the structures.

Test [1] concerns the target T1, MAGL (Mus musculus, UniProt O35678).
T1 construct: from tissue; host or cells: brain of wild-type C57Bl/6J mice
T1 sequence (O35678 1-303): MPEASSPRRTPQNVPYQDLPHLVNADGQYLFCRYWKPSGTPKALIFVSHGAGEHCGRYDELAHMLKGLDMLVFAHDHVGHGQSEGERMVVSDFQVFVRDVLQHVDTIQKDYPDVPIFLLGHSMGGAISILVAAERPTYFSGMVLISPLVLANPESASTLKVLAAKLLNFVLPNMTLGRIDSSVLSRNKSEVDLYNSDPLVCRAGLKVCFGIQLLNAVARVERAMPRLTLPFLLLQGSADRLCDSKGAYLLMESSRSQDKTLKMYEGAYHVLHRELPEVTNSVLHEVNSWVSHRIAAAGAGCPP
As to the kind of experiment: Mouse brain proteomes from inhibitor treated mice (oral gavage, brain proteomes analyzed 4 h after administration). It counts as in vivo, mouse (C57Bl/6J). As to conditions: brain proteome 4 h after administration, read-out: % Inh 5 mg/kg MGLL (Mouse). The procedure:
Compounds are tested to assess their MAGL and serine hydrolase activity using the following in vitro and in vivo assays.
Preparation of Mouse Brain Proteomes from Inhibitor Treated Mice.
Inhibitors were administered to wild-type C57Bl/6J by oral gavage in a vehicle of polyethylene glycol. Each animal was sacrificed 4 h following administration and brain proteomes were prepared and analyzed according to previously established methods (See Niphakis, M. J., et al. (2011) ACS Chem. Neurosci. and Long, J. Z., et al. Nat. Chem. Biol. 5:37-44).

Test [2] has as its target T2, MAGL (Homo sapiens, UniProt Q99685).
T2 construct: Proteomes (human prefrontal cortex or cell membrane fractions); from tissue
T2 sequence (Q99685 1-303): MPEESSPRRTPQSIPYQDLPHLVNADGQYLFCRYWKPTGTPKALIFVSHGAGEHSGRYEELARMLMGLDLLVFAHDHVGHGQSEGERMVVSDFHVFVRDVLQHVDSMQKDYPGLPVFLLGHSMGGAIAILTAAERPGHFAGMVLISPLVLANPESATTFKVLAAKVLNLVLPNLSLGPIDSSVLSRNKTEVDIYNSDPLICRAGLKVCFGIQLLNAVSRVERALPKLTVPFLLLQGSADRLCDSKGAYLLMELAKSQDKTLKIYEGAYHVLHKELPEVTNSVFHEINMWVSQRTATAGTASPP
As to the kind of experiment: In vitro competitive activity-based protein profiling (gel-based, FP-Rh or HT-01 probe). It counts as biochemical. As to conditions: for IC50: PC3 proteome, read-out: IC50 MGLL PC3 (Human). In outline: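 Human prefrontal cortex or cell membrane proteomes (1.0 mg/mL protein) preincubated with varying inhibitor concentrations 30 min at 37° C. FP-Rh or HT-01 probe (1.0 μL of 50 μM stock) then added for 30 min at room temperature; reactions quenched with SDS loading buffer and resolved by SDS-PAGE.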

In the case of `CN(Cc1ccc(C(F)(F)F)cc1N1CCC(C(=O)O)C1)C1(C)CCN(C(=O)OC(C(F)(F)F)C(F)(F)F)CC1` (centres unmarked) [Example 118, 1-(2-(((1-(((1,1,1,3,3,3-Hexafluoropropan-2-yl)oxy)carbonyl)-4-methylpiperidin-4-yl)(methyl)amino)methyl)-5-(trifluoromethyl)phenyl)pyrrolidine-3-carboxylic acid], the inhibition at 5 mg/kg on MAGL [1] was at least 75%. Further, the concentration for half-maximal inhibition (IC50) on MAGL [2] was under 100 nM.

Consider `CC1(N(CC(=O)O)Cc2ccc(C(F)(F)F)cc2N2CCOCC2)CCN(C(=O)OC(C(F)(F)F)C(F)(F)F)CC1` [Example 124, N-(1-(((1,1,1,3,3,3-Hexafluoropropan-2-yl)oxy)carbonyl)-4-methylpiperidin-4-yl)-N-(2-morpholino-4-(trifluoromethyl)benzyl)glycine], for which, on MAGL [1], the inhibition at 5 mg/kg was at least 75%. Also, at MAGL [2], the 50% inhibitory concentration (IC50) is under 100 nM.

On to `O=C(O)CN1CC2CC1CN2c1cc(CN2CCC3(CCN(C(=O)OC(C(F)(F)F)C(F)(F)F)CC3)C2)cc(C(F)(F)F)c1` (centres unmarked) [Example 125, 2-(5-{3-[(8-{[(1,1,1,3,3,3-Hexafluoropropan-2-yl)oxy]carbonyl}-2,8-diazaspiro[4.5]decan-2-yl)methyl]-5-(trifluoromethyl)phenyl}-2,5-diazabicyclo[2.2.1]heptan-2-yl)acetic acid], for which the inhibition at 5 mg/kg on MAGL [1] is at most 25%. Moreover, the 50% inhibitory concentration (IC50) on MAGL [2] was under 100 nM.

Take `O=C(O)CN1CC2CC1CN2c1cc(C(F)(F)F)ccc1CN1CCCC12CCN(C(=O)OC(C(F)(F)F)C(F)(F)F)CC2` (centres unmarked) [Example 126, 2-(5-{2-[(8-{[(1,1,1,3,3,3-Hexafluoropropan-2-yl)oxy]carbonyl}-1,8-diazaspiro[4.5]decan-1-yl)methyl]-5-(trifluoromethyl)phenyl}-2,5-diazabicyclo[2.2.1]heptan-2-yl)acetic acid]: on MAGL [1], the inhibition at 5 mg/kg was at most 25%. The half-maximal inhibitory concentration (IC50) on MAGL [2] is under 100 nM.

Regarding `O=C(O)CN1CC2CC1CN2c1cc(C(F)(F)F)ccc1CN1CC2(CCN(C(=O)OC(C(F)(F)F)C(F)(F)F)CC2)C1` (centres unmarked) [Example 127, 2-(5-{2-[(7-{[(1,1,1,3,3,3-Hexafluoropropan-2-yl)oxy]carbonyl}-2,7-diazaspiro[3.5]nonan-2-yl)methyl]-5-(trifluoromethyl)phenyl}-2,5-diazabicyclo[2.2.1]heptan-2-yl)acetic acid], the inhibition at 5 mg/kg on MAGL [1] was at most 25%. Also, at MAGL [2], the half-maximal inhibitory concentration (IC50) is under 100 nM.

In the case of `O=C(O)CN1CC2CC1CN2c1cc(CN2CCCC23CCN(C(=O)OC(C(F)(F)F)C(F)(F)F)CC3)cc(C(F)(F)F)c1` (centres unmarked) [Example 128, 2-(5-{3-[(8-{[(1,1,1,3,3,3-Hexafluoropropan-2-yl)oxy]carbonyl}-1,8-diazaspiro[4.5]decan-1-yl)methyl]-5-(trifluoromethyl)phenyl}-2,5-diazabicyclo[2.2.1]heptan-2-yl)acetic acid], at MAGL [1], the inhibition at 5 mg/kg is at most 25%. Besides, on MAGL [2], the half-inhibitory concentration (IC50) was under 100 nM.

As to `CC1(C(=O)O)CN(c2cc(C(F)(F)F)ccc2CN2CC3(CCN(C(=O)OC(C(F)(F)F)C(F)(F)F)CC3)C2)CCO1` (centres unmarked) [Example 130, 4-(2-((7-(((1,1,1,3,3,3-Hexafluoropropan-2-yl)oxy)carbonyl)-2,7-diazaspiro[3.5]nonan-2-yl)methyl)-5-(trifluoromethyl)phenyl)-2-methylmoipholine-2-carboxylic acid], the inhibition at 5 mg/kg at MAGL [1] is at most 25%. At MAGL [2], the IC50 is under 100 nM.

With `CN(Cc1ccc(C(F)(F)F)cc1C1(C(=O)O)CCCC1)C1(C)CCN(C(=O)OC(C(F)(F)F)C(F)(F)F)CC1` [Example 133, 1-(2-{[(1-{[(1,1,1,3,3,3-Hexafluoropropan-2-yl)oxy]carbonyl}-4-methylpiperidin-4-yl)(methyl)amino]methyl}-5-(trifluoromethyl)phenyl)cyclopentane-1-carboxylic acid], the inhibition at 5 mg/kg on MAGL [1] was at least 75%. For the same molecule, on MAGL [2], the half-inhibitory concentration (IC50) was under 100 nM. Besides, the “% Inh MGLL PFC (Human, μM)” value on MAGL [2] (PFC (prefrontal cortex) proteome) was “### (### is ≥ 75%)”.

Broadly, the IC50 is the concentration at which inhibition is half-maximal.
